From ChEMBL document CHEMBL1134083, “Discovery of a nuclease-resistant, non-natural dinucleotide that inhibits HIV-1 integrase” (Bioorg Med Chem Lett, 2001)

Columns and labels:
[1] = biological target: T1, Human immunodeficiency virus type 1 integrase (Human immunodeficiency virus 1, UniProt Q7ZJM1); assay: Inhibitory concentration required against recombinant wild type HIV integrase by reproducible assay (3' processing)
[2] = biological target: T1, Human immunodeficiency virus type 1 integrase; assay: Inhibitory concentration required against recombinant wild type HIV integrase by reproducible assay (Strand transfer)

T1 sequence (Q7ZJM1 whole entry): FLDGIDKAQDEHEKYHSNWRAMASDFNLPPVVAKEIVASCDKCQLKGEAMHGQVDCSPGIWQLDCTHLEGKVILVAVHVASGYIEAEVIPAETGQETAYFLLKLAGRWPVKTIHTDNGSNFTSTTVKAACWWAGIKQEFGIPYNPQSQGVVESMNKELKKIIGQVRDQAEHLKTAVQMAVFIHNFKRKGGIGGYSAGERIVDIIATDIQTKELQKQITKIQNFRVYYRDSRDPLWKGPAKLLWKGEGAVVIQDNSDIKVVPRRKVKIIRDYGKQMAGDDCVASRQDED

Nc1ccn([C@H]2C[C@H](OP(=O)(O)OC[C@H]3OC[C@@H](n4ccc(=O)[nH]c4=O)[C@@H]3O)[C@@H](COP(=O)(O)O)O2)c(=O)n1
IC50 [1]: 7.5 µM
IC50 [2]: 5.9 µM
